According to patent US20050164370A1 (priority 2003, published 2005):

Columns and labels:
Format in all cases: cell-based, yeast
[1] = tested on: transformed cells TM182-AHK2-CYC1IPT5; test: Liquid culture of transformed cell TM182-AHK2-CYC1IPT5 with examinee substance, absorbance; settings: Table 4, TM182-AHK2-CYC1-IPT5, 1 μL of 200 ppm DMSO solution per 100 μL, DOHLU+Glu, 30° C. for 24 hours
Description: (§1) The thus obtained culture solutions were diluted with DOHLU+Glu culture medium so that OD600 became 0.200, and then the diluted ones were further diluted with DOHLU+Glu culture medium at a dilution rate of 1/200 to obtain diluted pre-cultured solutions.
(§2) A 96-well assay plate was prepared by filling each well with 1 μL of a DMSO solution of an examinee substance (Abscisic acid or 6-Benzyl aminopurine). In this regard, it is to be noted that the DMSO solution of a examinee substance was prepared so that the concentration thereof became 200 ppm. Simultaneously, an assay plate was prepared by filling each well with 1 μL of DMSO as a blank section.
(§3) Each of the diluted pre-cultured solutions was added in a volume of 100 μL per each well of both of the assay plates, and was cultured at 30° C. for 24 hours. After incubation, the turbidity of each well was measured using a plate reader. The absorbance (OD600) of each of the culture solutions of the transformed cells containing the examinee substance was shown in Table 4. […] Further, the growth speeds of the transformed cells TM182-CRE1-ADHIPT4, TM182-AHK2-CYC1IPT4, TM182-AHK2-CYC1IPT5 and TM182-AHK2-ADHIPT5 in the culture medium to which 6-Benzyl aminopurine was added were faster than those in the culture medium to which only DMSO was added.

[2] = tested on: transformed cells TM182-AHK2-ADHIPT5; test: Liquid culture of transformed cell TM182-AHK2-ADHIPT5 with examinee substance, absorbance; settings: Table 4, TM182-AHK2-ADH-IPT5, 1 μL of 200 ppm DMSO solution per 100 μL, DOHLU+Glu, 30° C. for 24 hours
Description: as §1, §2, §3

cytokinin receptor AHK2 = target: T1, cytokinin receptor AHK2 (Arabidopsis thaliana, UniProt Q9C5U2); test: Agonist-activity to cytokinin receptor, optical density of TM182-AHK2 liquid culture; parameters: expressed in transfected cells; host or cells: yeast strain TM182 carrying plasmid p415CYC-AHK2 (pHM-1 backbone, CYC1 promoter); settings: TM182-AHK2, examinee substance 100 μM, DOLU+Glu, 30° C. for 24 hours
T1 sequence (Q9C5U2 1-1176): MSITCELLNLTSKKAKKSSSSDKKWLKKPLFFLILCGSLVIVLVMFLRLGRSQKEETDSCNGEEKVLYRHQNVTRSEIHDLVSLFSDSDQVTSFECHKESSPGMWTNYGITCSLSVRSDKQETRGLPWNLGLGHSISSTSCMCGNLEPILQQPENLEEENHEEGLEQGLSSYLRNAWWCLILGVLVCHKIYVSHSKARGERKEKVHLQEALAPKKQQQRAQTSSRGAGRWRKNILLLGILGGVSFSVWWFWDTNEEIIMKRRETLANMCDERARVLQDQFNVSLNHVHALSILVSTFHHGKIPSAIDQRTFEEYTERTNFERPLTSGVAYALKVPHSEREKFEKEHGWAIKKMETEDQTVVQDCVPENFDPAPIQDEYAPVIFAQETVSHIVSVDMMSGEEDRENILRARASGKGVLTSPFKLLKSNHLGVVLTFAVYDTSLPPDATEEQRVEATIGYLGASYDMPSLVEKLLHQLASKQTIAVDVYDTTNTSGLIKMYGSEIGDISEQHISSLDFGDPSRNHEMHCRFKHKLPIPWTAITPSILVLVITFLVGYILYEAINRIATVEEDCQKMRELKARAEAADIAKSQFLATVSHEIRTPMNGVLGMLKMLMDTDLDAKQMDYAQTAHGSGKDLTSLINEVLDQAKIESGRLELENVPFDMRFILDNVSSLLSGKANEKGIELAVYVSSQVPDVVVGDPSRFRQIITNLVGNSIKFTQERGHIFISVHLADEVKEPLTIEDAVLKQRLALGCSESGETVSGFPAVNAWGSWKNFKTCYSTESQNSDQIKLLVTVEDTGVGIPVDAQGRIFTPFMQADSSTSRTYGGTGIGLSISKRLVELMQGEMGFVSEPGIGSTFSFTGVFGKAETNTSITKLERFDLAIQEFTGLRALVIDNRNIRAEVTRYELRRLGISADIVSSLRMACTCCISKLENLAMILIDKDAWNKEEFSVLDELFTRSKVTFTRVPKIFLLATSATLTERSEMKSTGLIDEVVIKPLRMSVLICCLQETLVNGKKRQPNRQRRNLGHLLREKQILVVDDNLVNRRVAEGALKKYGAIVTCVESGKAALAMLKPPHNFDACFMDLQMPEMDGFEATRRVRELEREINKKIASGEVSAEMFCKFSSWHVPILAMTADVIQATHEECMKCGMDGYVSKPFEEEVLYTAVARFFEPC
Description: The transformed cells TM182-AHK2, TM182-AHK2Δ and TM182-AHK3 produced in the reference example 1 were inoculated in 200 ml of DOLU+Gal culture media and pre-cultured at 30° C. for 36 hours. The pre-cultured solutions were diluted with DOLU+Glu media as to become 0.100 as the optical density (OD600) and further the resultants were diluted with DOLU+Glu media at a dilution rate of 1/200 to obtain diluted pre-cultured solutions.
An assay plate was prepared by filling respective wells of a 96-well plate with 20 μl of solutions which were prepared by diluting DMSO solution (10 mM) of each examinee substance with DOLU+Glu medium at a dilution rate of 1/100, said solutions containing each examinee substance to be […]. […]
The diluted pre-cultured solutions were added in 200 μl each into the respective wells of both assay plates and cultured at 30° C. for 24 hours and then the optical density (OD620) of each well was measured by a plate reader. The agonist-activity of the examinee substances to the cytokinin receptor was detected by comparing the optical density measured in the testing sections to which the examinee substances were added with the optical density measured in the blank sections.

SMILES	absorbance (OD600) of the culture solution [1]	absorbance (OD600) of the culture solution [2]	optical density (OD620) of the culture solution (cytokinin receptor AHK2)
CC1=CC(=O)CC(C)(C)[C@@]1(O)/C=C/C(C)=C\C(=O)O [Compound A, Abscisic acid]	0.069	0.297	0.01
c1ccc(CNc2ncnc3nc[nH]c23)cc1 [Compound B, 6-Benzyl aminopurine]	0.430	0.427	0.45
